Test results published in PubChem BioAssay AID1919014 (Molecular Pharmacology Branch, DTP, NCI, 2023).

Tested on: NCI-H1341 complex spheroids, percent test/control
Test: Anticancer human tumor NCI-H1341 cell line growth inhibition [AhR];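 further: spheroids exposed to agents for seven days before readout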
Conditions: for IC50: curve of first compound; for viability, T/C: stronger effect = lower value; active means viability on the fitted dose curve at most 10% of control; inactive means the rest
Method in brief: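 Complex tumor spheroids co-cultured with HUVEC and human MSC stroma; AhR antagonists tested in combination with standard-of-care and investigational agents. Top concentration at or near clinical Cmax (else 10 microM), half-log dilutions; growth expressed as percent test/control.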

[1] = second compound 0.1 µM, first compound 0.000949 µM
[2] = second compound 0.1 µM, first compound 0.003 µM
[3] = second compound 0.1 µM, first compound 0.00949 µM
[4] = second compound 0.1 µM, first compound 0.03 µM
[5] = second compound 0.1 µM, first compound 0.0949 µM
[6] = second compound 0.1 µM, first compound 0.3 µM
[7] = second compound 0.316 µM, first compound 0.000949 µM
[8] = second compound 0.316 µM, first compound 0.003 µM
[9] = second compound 0.316 µM, first compound 0.00949 µM
[10] = second compound 0.316 µM, first compound 0.03 µM
[11] = second compound 0.316 µM, first compound 0.0949 µM
[12] = second compound 0.316 µM, first compound 0.3 µM
[13] = second compound 1 µM, first compound 0.000949 µM
[14] = second compound 1 µM, first compound 0.003 µM
[15] = second compound 1 µM, first compound 0.00949 µM
[16] = second compound 1 µM, first compound 0.03 µM
[17] = second compound 1 µM, first compound 0.0949 µM
[18] = second compound 1 µM, first compound 0.3 µM
[19] = second compound 3.16 µM, first compound 0.000949 µM
[20] = second compound 3.16 µM, first compound 0.003 µM
[21] = second compound 3.16 µM, first compound 0.00949 µM
[22] = second compound 3.16 µM, first compound 0.03 µM
[23] = second compound 3.16 µM, first compound 0.0949 µM
[24] = second compound 3.16 µM, first compound 0.3 µM
[25] = second compound 10 µM, first compound 0.000949 µM
[26] = second compound 10 µM, first compound 0.003 µM
[27] = second compound 10 µM, first compound 0.00949 µM
[28] = second compound 10 µM, first compound 0.03 µM
[29] = second compound 10 µM, first compound 0.0949 µM
[30] = second compound 10 µM, first compound 0.3 µM
[31] = second compound 0.1 µM, first compound 0.0316 µM
[32] = second compound 0.1 µM, first compound 0.1 µM
[33] = second compound 0.1 µM, first compound 0.316 µM
[34] = second compound 0.1 µM, first compound 1 µM
[35] = second compound 0.1 µM, first compound 3.16 µM
[36] = second compound 0.1 µM, first compound 10 µM
[37] = second compound 0.316 µM, first compound 0.0316 µM
[38] = second compound 0.316 µM, first compound 0.1 µM
[39] = second compound 0.316 µM, first compound 0.316 µM
[40] = second compound 0.316 µM, first compound 1 µM
[41] = second compound 0.316 µM, first compound 3.16 µM
[42] = second compound 0.316 µM, first compound 10 µM
[43] = second compound 1 µM, first compound 0.0316 µM
[44] = second compound 1 µM, first compound 0.1 µM
[45] = second compound 1 µM, first compound 0.316 µM
[46] = second compound 1 µM, first compound 1 µM
[47] = second compound 1 µM, first compound 3.16 µM
[48] = second compound 1 µM, first compound 10 µM
[49] = second compound 3.16 µM, first compound 0.0316 µM
[50] = second compound 3.16 µM, first compound 0.1 µM
[51] = second compound 3.16 µM, first compound 0.316 µM
[52] = second compound 3.16 µM, first compound 1 µM
[53] = second compound 3.16 µM, first compound 3.16 µM
[54] = second compound 3.16 µM, first compound 10 µM
[55] = second compound 10 µM, first compound 0.0316 µM
[56] = second compound 10 µM, first compound 0.1 µM
[57] = second compound 10 µM, first compound 0.316 µM
[58] = second compound 10 µM, first compound 1 µM
[59] = second compound 10 µM, first compound 3.16 µM
[60] = second compound 10 µM, first compound 10 µM

CC(C)CC(NC(=O)C(Cc1ccccc1)NC(=O)c1cnccn1)B(O)O (stereo not given) + Cc1cncc(-c2nc(NCCc3c[nH]c4ccccc34)c3ncn(C(C)C)c3n2)c1
< 0.949 nM: IC50 (second compound 10 µM)
3.73 nM: IC50 (second compound 3.16 µM)
4 nM: IC50 (second compound 1 µM)
5.11 nM: IC50 (second compound 0.1 µM)
4.76 nM: IC50 (second compound 0.316 µM)
inactive: viability, T/C [1] 98.4% | viability, T/C [2] 89.7% | viability, T/C [7] 80.5% | viability, T/C [8] 83.1% | viability, T/C [13] 83.4% | viability, T/C [14] 65.8% | viability, T/C [19] 56.4% | viability, T/C [20] 66.4% | viability, T/C [25] 28% | viability, T/C [26] 58.4%
active: viability, T/C [3] 3.87% | viability, T/C [4] 0.1% | viability, T/C [5] 0.05% | viability, T/C [6] 0.16% | viability, T/C [9] 2.53% | viability, T/C [10] 0.14% | viability, T/C [11] 0.06% | viability, T/C [12] 0.12% | viability, T/C [15] 2.45% | viability, T/C [16] 0.11% | viability, T/C [17] 0.05% | viability, T/C [18] 0.5% | viability, T/C [21] 1.23% | viability, T/C [22] 0.06% | viability, T/C [23] 0.08% | viability, T/C [24] 0.14% | viability, T/C [27] 0.22% | viability, T/C [28] 0.14% | viability, T/C [29] 0.15% | viability, T/C [30] 0.17%

CCc1c2c(nc3ccc(O)cc13)-c1cc3c(c(=O)n1C2)COC(=O)[C@]3(O)CC + Cc1cncc(-c2nc(NCCc3c[nH]c4ccccc34)c3ncn(C(C)C)c3n2)c1
active: viability, T/C [18] 8.02% | viability, T/C [24] 5.83% | viability, T/C [28] 8.23% | viability, T/C [29] 4.28% | viability, T/C [30] 1.78%
3.57 nM: IC50 (second compound 0.316 µM)
inactive: viability, T/C [1] 69.6% | viability, T/C [2] 65.8% | viability, T/C [3] 41.9% | viability, T/C [4] 31.9% | viability, T/C [5] 25.2% | viability, T/C [6] 11.9% | viability, T/C [7] 63.2% | viability, T/C [8] 55.8% | viability, T/C [9] 33.8% | viability, T/C [10] 31.8% | viability, T/C [11] 22.9% | viability, T/C [12] 10% | viability, T/C [13] 46.1% | viability, T/C [14] 45.6% | viability, T/C [15] 36.4% | viability, T/C [16] 31.7% | viability, T/C [17] 20.4% | viability, T/C [19] 46% | viability, T/C [20] 38.2% | viability, T/C [21] 34.6% | viability, T/C [22] 26.3% | viability, T/C [23] 15.2% | viability, T/C [25] 15.2% | viability, T/C [26] 13% | viability, T/C [27] 14.9%
< 0.949 nM: IC50 (second compound 1 µM) | IC50 (second compound 3.16 µM) | IC50 (second compound 10 µM)
7.13 nM: IC50 (second compound 0.1 µM)

COc1cc(Nc2ncc3c(n2)-c2ccc(Cl)cc2C(c2c(F)cccc2OC)=NC3)ccc1C(=O)O + Cc1cncc(-c2nc(NCCc3c[nH]c4ccccc34)c3ncn(C(C)C)c3n2)c1
inactive: viability, T/C [31] 38.2% | viability, T/C [32] 42.3% | viability, T/C [33] 38.9% | viability, T/C [34] 31.2% | viability, T/C [35] 24.2% | viability, T/C [36] 21% | viability, T/C [37] 37.1% | viability, T/C [38] 37.1% | viability, T/C [39] 34.9% | viability, T/C [40] 23.9% | viability, T/C [41] 26.9% | viability, T/C [42] 22.3% | viability, T/C [43] 36.1% | viability, T/C [44] 39.9% | viability, T/C [45] 34.3% | viability, T/C [46] 30.1% | viability, T/C [47] 25.8% | viability, T/C [48] 20.5% | viability, T/C [49] 42.2% | viability, T/C [50] 37.7% | viability, T/C [51] 40.2% | viability, T/C [52] 37.5% | viability, T/C [53] 27.5% | viability, T/C [54] 24% | viability, T/C [55] 25.4% | viability, T/C [56] 30.3% | viability, T/C [57] 29.8% | viability, T/C [58] 24.2% | viability, T/C [59] 21.2% | viability, T/C [60] 19.4%
< 31.6 nM: IC50 (second compound 0.1 µM) | IC50 (second compound 0.316 µM) | IC50 (second compound 1 µM) | IC50 (second compound 3.16 µM) | IC50 (second compound 10 µM)

Nc1ccccc1NC(=O)c1ccc(CNC(=O)OCc2cccnc2)cc1 + Cc1cncc(-c2nc(NCCc3c[nH]c4ccccc34)c3ncn(C(C)C)c3n2)c1
382 nM: IC50 (second compound 0.316 µM)
active: viability, T/C [35] 5.05% | viability, T/C [36] 0.51% | viability, T/C [41] 5.82% | viability, T/C [42] 0.6% | viability, T/C [47] 5.68% | viability, T/C [48] 0.56% | viability, T/C [53] 8.4% | viability, T/C [54] 0.87% | viability, T/C [58] 9.63% | viability, T/C [59] 1.83% | viability, T/C [60] 0.47%
369 nM: IC50 (second compound 1 µM)
403 nM: IC50 (second compound 0.1 µM)
inactive: viability, T/C [31] 66.1% | viability, T/C [32] 76.2% | viability, T/C [33] 52.2% | viability, T/C [34] 29.1% | viability, T/C [37] 73.4% | viability, T/C [38] 65.8% | viability, T/C [39] 55.7% | viability, T/C [40] 26.1% | viability, T/C [43] 68.6% | viability, T/C [44] 84.9% | viability, T/C [45] 51.3% | viability, T/C [46] 19.8% | viability, T/C [49] 55.3% | viability, T/C [50] 52.2% | viability, T/C [51] 42.3% | viability, T/C [52] 21.7% | viability, T/C [55] 21.9% | viability, T/C [56] 22.6% | viability, T/C [57] 15.2%
127 nM: IC50 (second compound 3.16 µM)
< 31.6 nM: IC50 (second compound 10 µM)

O=C(C=Cc1cccc(S(=O)(=O)Nc2ccccc2)c1)NO + Cc1cncc(-c2nc(NCCc3c[nH]c4ccccc34)c3ncn(C(C)C)c3n2)c1
inactive: viability, T/C [31] 71.7% | viability, T/C [32] 80.8% | viability, T/C [33] 43.8% | viability, T/C [34] 16% | viability, T/C [37] 76.2% | viability, T/C [38] 74.7% | viability, T/C [39] 55.1% | viability, T/C [40] 15.3% | viability, T/C [43] 80.3% | viability, T/C [44] 55.7% | viability, T/C [45] 44.9% | viability, T/C [46] 22.9% | viability, T/C [49] 71.2% | viability, T/C [50] 55.6% | viability, T/C [51] 38.1% | viability, T/C [52] 13.1% | viability, T/C [55] 37% | viability, T/C [56] 33.9% | viability, T/C [57] 20.2% | viability, T/C [58] 9.91%
active: viability, T/C [35] 5.29% | viability, T/C [36] 0.53% | viability, T/C [41] 5.78% | viability, T/C [42] 0.65% | viability, T/C [47] 5.39% | viability, T/C [48] 0.5% | viability, T/C [53] 4.08% | viability, T/C [54] 0.56% | viability, T/C [59] 2.99% | viability, T/C [60] 0.32%
< 31.6 nM: IC50 (second compound 10 µM)
278 nM: IC50 (second compound 0.1 µM)
150 nM: IC50 (second compound 3.16 µM)
179 nM: IC50 (second compound 1 µM)
366 nM: IC50 (second compound 0.316 µM)

O=C(c1cc(Cc2n[nH]c(=O)c3ccccc23)ccc1F)N1CCN(C(=O)C2CC2)CC1 + Cc1cncc(-c2nc(NCCc3c[nH]c4ccccc34)c3ncn(C(C)C)c3n2)c1
> 10000 nM: IC50 (second compound 0.1 µM) | IC50 (second compound 0.316 µM) | IC50 (second compound 1 µM) | IC50 (second compound 3.16 µM)
inactive: viability, T/C [31] 87.6% | viability, T/C [32] 80.9% | viability, T/C [33] 82.1% | viability, T/C [34] 85.5% | viability, T/C [35] 76.7% | viability, T/C [36] 61.7% | viability, T/C [37] 72.7% | viability, T/C [38] 91.4% | viability, T/C [39] 64.4% | viability, T/C [40] 77.5% | viability, T/C [41] 74.1% | viability, T/C [42] 63% | viability, T/C [43] 88.3% | viability, T/C [44] 61.2% | viability, T/C [45] 70.8% | viability, T/C [46] 79.3% | viability, T/C [47] 71% | viability, T/C [48] 62.7% | viability, T/C [49] 57.5% | viability, T/C [50] 61.1% | viability, T/C [51] 60.6% | viability, T/C [52] 62% | viability, T/C [53] 68.1% | viability, T/C [54] 51.4% | viability, T/C [55] 19.4% | viability, T/C [56] 19.5% | viability, T/C [57] 19.6% | viability, T/C [58] 21.3% | viability, T/C [59] 21.2% | viability, T/C [60] 22.1%
< 31.6 nM: IC50 (second compound 10 µM)
